Tests used:
[1] = test system: Jurkat cells; test: Toxicity assays in Jurkat cells (cell counting, necrosis and apoptosis by flow cytometry); format: cell-based, Human
Experimental: Fig 8 Toxicity assays in Jurkat cells. Jurkat cells were adjusted to 1×10^9 cells/L in RPMI-1640 medium containing 1% Penicillin/Streptomycin and 10% fetal bovine serum. The cells were grown in triplicate in the presence or absence of compound 5 at the indicated concentrations for 4 days at 37°C, under a humidified 5% CO2 atmosphere. CAM was used as a reference compound. For cell necrosis and apoptosis assays, samples (10^6 cells) were collected daily and determined by flow cytometry. Apoptotic and necrotic cells were expressed as a percentage of total cells.
Human leukemic cell lines, HS-Sultan (Burkitt’s lymphoma), Jurkat (T-cell acute lymphoblastic leukemia), and U937 (histiocytic lymphoma), were adjusted to 1×10^9 cells/l in RPMI-1640 medium supplemented with 10% fetal bovine serum and 1% penicillin/streptomycin. The cells were grown in triplicate in the absence (control cultures) or presence of CAM or CAM dimers for 4 days at 37°C, under a humidified 5% CO2 atmosphere. The medium was changed daily; CAM or CAM dimer addition was repeated after medium change. Aliquots were collected daily and counted in a CELL-DYN 3700 Hematology Analyzer. For cell necrosis and apoptosis assays, samples (10^6 cells) were collected and determined using the Annexin V-PE Apoptosis Detection Kit I (BD Pharmingen) for flow cytometry, according to the manufacturers’ instructions. Flow cytometry data were analyzed using the FlowJo flow cytometry analysis software. Necrotic and apoptotic cells were expressed as a percentage of total cells.

[2] = test system: human peripheral blood cells; test: Toxicity assays in human peripheral blood cells; format: cell-based
Experimental: Fig 7 Toxicity assays in human peripheral blood cells. Peripheral blood was collected in EDTA-coated tubes from 5 healthy volunteers (age range: 25–30 years). Concentration was adjusted to 1.8×10^9 cells/L using RPMI-1640 medium containing 1% penicillin/streptomycin. Cells were cultured in triplicate in the presence or the absence of 30 or 60 μM CAM or compound 5, under a humidified 5% CO2 atmosphere for 5 days, at 37°C. Cultures were counted daily by a CELL-DYN 3700 Hematology Analyzer and values were expressed as a percentage of cells measured in controls.
Peripheral blood was collected in EDTA-coated tubes from 5 healthy volunteers (age range: 25–30 years). Cell concentration was adjusted to 5×10^8 cells/l using RPMI-1640 medium (GIBCO BRL) containing 1% penicillin/streptomycin. Cells were cultured in triplicate under a humidified 5% CO2 atmosphere for 5 days, at 37°C, in the absence (control cultures) or the presence of CAM or CAM dimers. Counting of cells was performed daily in a CELL-DYN 3700 Hematology Analyzer (Abbott, USA) and values were expressed as a percentage of cells measured in control cultures.

[3] = test system: 70S ribosomes from E. coli (23S rRNA); test: Crosslinking of CAM dimers to ribosomes upon 365 nm irradiation; format: binding; details: R*I complex, 365 nm light for 30 min, compound at 10×K i
Experimental: Specifically, a mixture of E. coli ribosomes together with either 4 or 5, each added to the incubation mixture at concentration equal to 10×K i, were irradiated for 30 min with 365 nm light. Following purification, the irradiation products were analyzed by primer extension. […] In contrast, compound 4 crosslinked to C2611, without raising any modification signal in the A2058-A2059 region. It should be mentioned that the concentrations used for compounds 4 and 5 in this series of experiments were much lower (<60 μM) than those of CAM utilized previously by Long & Porse. […]
Fig 5 CAM dimer crosslinking at the entrance to the exit tunnel, upon UV-irradiation. […] The irradiation products were analyzed by probing with DMS (panels A and B) or CMCT (panel C) and primer extension, before (lanes 3 and 6) or after discharging from excess CAM dimer (lanes 2 and 5). […]
Following formation of R*I complexes, the samples were irradiated at 365 nm, for 30 min, in a Vilber Lourmat UV Cabinet (VL-215.LC-30W) light source. […] Half of the sample was probed with DMS or CMCT, and then analyzed by primer extension as shown above, while the other half was extracted with phenol, phenol-chloroform (1:1), and chloroform, followed by ethanol precipitation to remove non-crosslinked agents. […]

Which “apoptosis, expressed as a percentage of total cells” value ([1]; 60 μM, flow cytometry) does the source give for `O=C(N[C@H](CO)[C@H](O)c1ccc([N+](=O)[O-])cc1)c1ccc(C(=O)N[C@H](CO)[C@H](O)c2ccc([N+](=O)[O-])cc2)cc1` [Compound 5, N^1,N^4-Bis ((1R,2R)-1,3-dihydroxy-1-(4-nitrophenyl)propan-2-yl)-terephthalamide] here?
Its value is 43%.

What about the necrosis ([1]; 60 μM, flow cytometry) of the same molecule?
The necrosis was “failed to induce necrosis”.

What about the “growth of Jurkat cells” value ([1]; daily cell counting, all tested concentrations) of the same molecule?
The value was “the rate of growth was reduced proportionally to the concentration”.

What about the “toxicity against other types of leukocytes” value [2] of the same molecule?
Its value is “negligible”.

And the “time of peak toxicity on neutrophils” value ([2]; 120 h exposure of blood cells)?
The value was 48 h.

And the toxicity on neutrophils ([2]; 120 h exposure of blood cells, 30 or 60 μM)?
The toxicity on neutrophils was “mild and transient toxicity”.

What about the “nucleoside(s) of 23S rRNA crosslinked” value [3] of the same molecule?
Its value is “C2610, and less to nucleosides A2058 and A2059”.
